Reference: paper PMC6332232 (Molecules, 2015)
One block for each molecule: values may come before it.

Experiments:
[1] = Enzyme kinetics of 4(S)-hydroxyevogliptin glucuronidation in pooled human liver microsomes; format: in vitro ADME
Protocol: Therefore, a 20 min incubation time and 0.2 mg/mL microsomal protein concentration were selected for enzyme kinetics experiments. The reaction mixture comprised 50 mM Tris buffer (pH 7.4), 10 mM magnesium chloride, 0.025 mg/mL alamethicin, pooled human liver microsomes (20 μg protein), and various concentrations of 4(S)-hydroxyevogliptin (M2) (10 to 2,000 μM; final acetonitrile concentration not exceeding 0.5%, v/v), and was preincubated for 3 min at 37 °C. The reaction was initiated by adding UDPGA, and the mixture was further incubated (final volume of 100 μL) for 20 min at 37 °C in a shaking water bath. The reaction was stopped by adding 100 μL of MPPI (internal standard, 50 ng/mL) in ice-cold acetonitrile. The mixture was centrifuged at 13,000 rpm for 4 min at 4 °C. […]
Results represent the average of three independent experiments using human liver microsomes and human cDNA-expressed CYP and UGT enzymes. The kinetic parameters (Km and Vmax) for hydroxylation and glucuronidation were determined using the Michaelis-Menten equation [V = Vmax·S/(Km + S)], the Hill equation [V = Vmax·S^n/(Km^n + S^n)], or the isoenzyme equation [V = Vmax1·(S/Km1)/(1 + S/Km1) + Vmax2·(S/Km2)/(1 + S/Km2)] with the Enzyme Kinetics software (version 1.3; Systat Software Inc.). […] The intrinsic clearance (Clint) was calculated as Vmax/Km.

[2] = Enzyme kinetics of evogliptin hydroxylation in pooled human liver microsomes; format: in vitro ADME; conditions: single-enzyme kinetics; for Km at 20 min: human, pH 7.4, Km
Protocol: Thus, a 20 min incubation time and 0.15 mg/mL microsomal protein concentration were used in subsequent experiments. […] The mixture was centrifuged at 13,000 rpm for 4 min at 4 °C. Subsequently, 50 μL of the supernatant were diluted with 50 μL of deionized water and an aliquot (5 μL) was injected onto the LC-MS/MS system. Results represent the average of three independent experiments using human liver microsomes and human cDNA-expressed CYP and UGT enzymes. […] Systat Software Inc.). In the above-mentioned equations, V was the velocity of the reaction at substrate concentration [S], Vmax was the maximum velocity, Km was the substrate concentration at which the V was half of Vmax, and n is the Hill constant. The intrinsic clearance (Clint) was calculated as Vmax/Km.

[3] = substrate: CC(C)(C)OC[C@@H]1C(=O)NCCN1C(=O)C[C@H](N)[C@@H](O)c1cc(F)c(F)cc1F; assay: Enzyme kinetics of 4(S)-hydroxyevogliptin glucuronidation in human cDNA-expressed UGT2B4; format: in vitro ADME; conditions: other: UGT2B4, single-enzyme kinetics; pH 7.4; 37.0 °C
Protocol: (§1) For the enzyme kinetic study, various concentrations of 4(S)-hydroxyevogliptin (M2) (25 to 2000 μM; final acetonitrile concentration not exceeding 0.5%, v/v) were incubated with human cDNA-expressed UGT2B4 or UGT2B7 enzymes (20 μg protein), 2 mM UDPGA, 0.025 mg/mL alamethicin, and 10 mM magnesium chloride in 50 mM Tris buffer (pH 7.4) for 20 min at 37 °C in a shaking water bath. After adding ice-cold acetonitrile containing internal standard (MPPI, 50 ng/mL), the mixture was centrifuged and diluted as described above, and an aliquot (5 μL) was analyzed using the LC-MS/MS system.
(§2) Results represent the average of three independent experiments using human liver microsomes and human cDNA-expressed CYP and UGT enzymes. The kinetic parameters (Km and Vmax) for hydroxylation and glucuronidation were determined using the Michaelis-Menten equation [V = Vmax·S/(Km + S)], the Hill equation [V = Vmax·S^n/(Km^n + S^n)], or the isoenzyme equation [V = Vmax1·(S/Km1)/(1 + S/Km1) + Vmax2·(S/Km2)/(1 + S/Km2)] with the Enzyme Kinetics software (version 1.3; Systat Software Inc.). In the above-mentioned equations, V was the velocity of the reaction at substrate concentration [S], Vmax was the maximum velocity, Km was the substrate concentration at which the V was half of Vmax, and n is the Hill constant. The intrinsic clearance (Clint) was calculated as Vmax/Km.

not read = substrate: CC(C)(C)OC[C@@H]1C(=O)NCCN1C(=O)C[C@H](N)Cc1cc(F)c(F)cc1F; assay: not read; conditions: other: CYP3A5, single-enzyme kinetics; pH 7.4; 37.0 °C
[4] = substrate: CC(C)(C)OC[C@@H]1C(=O)NCCN1C(=O)C[C@H](N)[C@@H](O)c1cc(F)c(F)cc1F; assay: Enzyme kinetics of 4(S)-hydroxyevogliptin glucuronidation in human cDNA-expressed UGT2B7; format: in vitro ADME; conditions: other: UGT2B7, Hill equation kinetics; pH 7.4; 37.0 °C
Protocol: as §1, §2

Vmax, formation of 4(S)-hydroxyevogliptin glucuronide (M4) ([1]; Hill equation): 711.4 pmol/mg protein/min
Km at 20 min ([1]; pH 7.4, Hill equation): 928 µM
Molecule: CC(C)(C)OC[C@@H]1C(=O)NCCN1C(=O)C[C@H](N)[C@@H](O)c1cc(F)c(F)cc1F [4(S)-hydroxyevogliptin]

Molecule: CC(C)(C)OC[C@@H]1C(=O)NCCN1C(=O)C[C@H](N)Cc1cc(F)c(F)cc1F [evogliptin, (R)-4-((R)-3-amino-4-(2,4,5-trifluorophenyl)butanoyl)-3-(tert-butoxymethyl)-piperazin-2-one]
Km at 20 min ([2]; formation of 4(R)-hydroxyevogliptin (M3)): 124 µM
Km at 20 min ([2]; formation of 4(S)-hydroxyevogliptin (M2)): 93.4 µM
Vmax, formation of 4(R)-hydroxyevogliptin (M3) [2]: 113.0 pmol/min/mg protein
Vmax, formation of 4(S)-hydroxyevogliptin (M2) [2]: 91.9 pmol/min/mg protein

B1: UGT2B4 (Homo sapiens) (protein)
chain: GKVLVWPTEFSHWMNIKTILDELVQRGHEVTVLASSASISFDPNSPSTLKFEVYPVSLTKTEFEDIIKQLVKRWAELPKDTFWSYFSQVQEIMWTFNDILRKFCKDIVSNKKLMKKLQESRFDVVLADAVFPFGELLAELLKIPFVYSLRFSPGYAIEKHSGGLLFPPSYVPVVMSELSDQMTFIERVKNMIYVLYFEFWFQIFDMKKWDQFYSEVLGRPTTLSETMAKADIWLIRNYWDFQFPHPLLPNVEFVGGLHCKPAKPLPKEMEEFVQSSGENGVVVFSLGSMVSNTSEERANVIASALAKIPQKVLWRFDGNKPDTLGLNTRLYKWIPQNDLLGHPKTRAFITHGGANGIYEAIYHGIPMVGVPLFADQPDNIAHMKAKGAAVSLDFHTMSSTDLLNALKTVINDPLYKENAMKLSRIHHDQPVKPLDRAVFWIEFVMRHKGAKHLRVAAHDLTWFQYHSLDVTGFLLACVATVIFIITKCLFCVWKFVRTGKKGKRD
notes: purchased Corning Life Sciences
Km [3]: 1,328 μM

B2: CYP3A5 (Homo sapiens) (protein)
chain: MDLIPNLAVETWLLLAVSLVLLYLYGTRTHGLFKRLGIPGPTPLPLLGNVLSYRQGLWKFDTECYKKYGKMWGTYEGQLPVLAITDPDVIRTVLVKECYSVFTNRRSLGPVGFMKSAISLAEDEEWKRIRSLLSPTFTSGKLKEMFPIIAQYGDVLVRNLRREAEKGKPVTLKDIFGAYSMDVITGTSFGVNIDSLNNPQDPFVESTKKFLKFGFLDPLFLSIILFPFLTPVFEALNVSLFPKDTINFLSKSVNRMKKSRLNDKQKHRLDFLQLMIDSQNSKETESHKALSDLELAAQSIIFIFAGYETTSSVLSFTLYELATHPDVQQKLQKEIDAVLPNKAPPTYDAVVQMEYLDMVVNETLRLFPVAIRLERTCKKDVEINGVFIPKGSMVVIPTYALHHDPKYWTEPEEFRPERFSKKKDSIDPYIYTPFGTGPRNCIGMRFALMNMKLALIRVLQNFSFKPCKETQIPLKLDTQGLLQPEKPIVLKVDSRDGTLSGE
kcat (not read): 19.5 pmol/min/pmol CYP

B3: UGT2B7 (Homo sapiens) (protein)
chain: GKVLVWAAEYSHWMNIKTILDELIQRGHEVTVLASSASILFDPNNSSALKIEIYPTSLTKTELENFIMQQIKRWSDLPKDTFWLYFSQVQEIMSIFGDITRKFCKDVVSNKKFMKKVQESRFDVIFADAIFPCSELLAELFNIPFVYSLSFSPGYTFEKHSGGFIFPPSYVPVVMSELTDQMTFMERVKNMIYVLYFDFWFEIFDMKKWDQFYSEVLGRPTTLSETMGKADVWLIRNSWNFQFPYPLLPNVDFVGGLHCKPAKPLPKEMEDFVQSSGENGVVVFSLGSMVSNMTEERANVIASALAQIPQKVLWRFDGNKPDTLGLNTRLYKWIPQNDLLGHPKTRAFITHGGANGIYEAIYHGIPMVGIPLFADQPDNIAHMKARGAAVRVDFNTMSSTDLLNALKRVINDPSYKENVMKLSRIQHDQPVKPLDRAVFWIEFVMRHKGAKHLRVAAHDLTWFQYHSLDVIGFLLVCVATVIFIVTKCCLFCFWKFARKAKKGKND
notes: purchased Corning Life Sciences (Woburn, MA, USA)
Km [4]: 1003.8 µM
